Patent publication US9695155B2, “Herbicidal substituted pyrimidinyloxy benzene compounds” (E. I. DU PONT DE NEMOURS AND COMPANY, priority 2013, dated 2017)

Key:
[1] = tested on: winter barley; assay: Test D preemergence; assay type: in vivo, Hordeum vulgare; conditions: Hordeum vulgare, pre-emergence, scale 0-100, read-out: Plant response rating, Barley, Winter
Outline: (§1)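 Species were sown in silt loam for preemergence treatment, or grown in peat-based medium to the 1–4-leaf stage (2–18 cm) for postemergence sprays. Test chemicals were formulated in a non-phytotoxic solvent mixture with surfactant. After 7–21 days in a controlled environment, plants were rated visually against controls on a 0 (no effect) to 100 (complete control) scale.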

[2] = tested on: spring barley; assay: Test D preemergence; assay type: in vivo, Hordeum vulgare; conditions: Hordeum vulgare, pre-emergence, scale 0-100, read-out: Plant response rating, Barley, Spring
Outline: as §1

[3] = tested on: Italian ryegrass; assay: Test D preemergence; assay type: in vivo, Lolium multiflorum; conditions: Lolium multiflorum, pre-emergence
Outline: as §1

[4] = tested on: blackgrass; assay: Test D preemergence; assay type: in vivo, Alopecurus myosuroides; conditions: Alopecurus myosuroides, pre-emergence, scale 0-100, read-out: Plant response rating, Blackgrass
Outline: as §1

[5] = tested on: chickweed; assay: Test D preemergence; assay type: in vivo, Stellaria media; conditions: Stellaria media, pre-emergence, scale 0-100, read-out: Plant response rating, Chickweed
Outline: as §1

[6] = tested on: windgrass; assay: Test D postemergence; assay type: in vivo, Apera spica-venti; conditions: Apera spica-venti, post-emergence, scale 0 to 100 (0 no effect, 100 complete control), read-out: Plant response rating, Windgrass
Outline: as §1

[7] = tested on: field poppy; assay: Test D postemergence; assay type: in vivo, Papaver rhoeas; conditions: Papaver rhoeas, post-emergence, scale 0 to 100 (0 no effect, 100 complete control), read-out: Plant response rating, Field Poppy
Outline: as §1

[8] = tested on: wild oat; assay: Test D preemergence; assay type: in vivo, Avena fatua; conditions: Avena fatua, pre-emergence, scale 0-100, read-out: Plant response rating, Oat, Wild
Outline: as §1

[9] = tested on: hairy beggarticks; assay: Test E postemergence; assay type: in vivo, Bidens pilosa; conditions: Bidens pilosa, post-emergence, read-out: Plant response rating, Beggarticks
Outline: (§2)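 Response was scored visually on a 0-100 scale (100 = complete control) versus controls after 14 to 21 days in the greenhouse. Test chemicals, formulated with surfactant in a non-phytotoxic solvent mixture, had been applied preemergence to seeds in silt loam soil or postemergence to 1- to 4-leaf plants in potting medium.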

[10] = tested on: wild poinsettia; assay: Test E postemergence; assay type: in vivo, Euphorbia heterophylla; conditions: Euphorbia heterophylla, post-emergence, read-out: Plant response rating, Poinsettia, Wild
Outline: as §2

[11] = tested on: wild radish; assay: Test D preemergence; assay type: in vivo, Raphanus raphanistrum; conditions: Raphanus raphanistrum, pre-emergence
Outline: as §1

[12] = tested on: wild radish; assay: Test D postemergence; assay type: in vivo, Raphanus raphanistrum; conditions: Raphanus raphanistrum, post-emergence, scale 0 to 100 (0 no effect, 100 complete control), read-out: Plant response rating, Radish, Wild
Outline: as §1

[13] = tested on: bromegrass, downy; assay: Test D preemergence; assay type: in vivo, Bromus tectorum; conditions: Bromus tectorum, pre-emergence, scale 0-100, read-out: Plant response rating, Bromegrass, Downy
Outline: as §1

[14] = tested on: fall panicum; assay: Test E postemergence; assay type: in vivo, Panicum dichotomiflorum; conditions: Panicum dichotomiflorum, post-emergence, read-out: Plant response rating, Panicum, Fall
Outline: as §2

[15] = Postemergence, 31 g ai/ha, scale 0 to 100
[16] = Postemergence, 62 g ai/ha, scale 0 to 100
[17] = Postemergence, 125 g ai/ha, scale 0 to 100
[18] = Postemergence, 250 g ai/ha, scale 0 to 100
[19] = postemergence, 16 g ai/ha, scale 0 to 100, 0 no effect, 100 complete control

With N#Cc1cccc(Oc2ncc(Br)cn2)c1-n1cc(C(F)(F)F)cn1 [Compound 59, 3-[(5-bromo-2-pyrimidinyl)oxy]-2-[4-(trifluoromethyl)-1H-pyrazol-1-yl]benzonitrile] the plant injury at 31 g/ha ([1]; 31 g ai/ha) was 0%, the plant injury at 62 g/ha ([1]; 62 g ai/ha) was 10% and the plant injury at 125 g/ha ([1]; 125 g ai/ha) was 40%. For the same molecule, the plant injury at 250 g/ha ([1]; 250 g ai/ha) was 80%, the plant injury at 31 g/ha ([2]; 31 g ai/ha) was 5% and the plant injury at 62 g/ha ([2]; 62 g ai/ha) was 5%. For the same molecule, the plant injury at 125 g/ha ([2]; 125 g ai/ha) was 50%, the plant injury at 250 g/ha ([2]; 250 g ai/ha) was 75% and the pest or weed control at 31 g/ha ([3]; 31 g ai/ha, scale 0 (no effect) to 100 (complete control), read-out: Plant response rating, Ryegrass, Italian) was 0%. For the same molecule, the pest or weed control at 62 g/ha ([3]; 62 g ai/ha, scale 0-100, read-out: Plant response rating, Ryegrass, Italian) was 5%, the pest or weed control at 125 g/ha ([3]; 125 g ai/ha, scale 0-100, read-out: Plant response rating, Ryegrass, Italian) was 60% and the pest or weed control at 250 g/ha ([3]; 250 g ai/ha, scale 0-100, read-out: Plant response rating, Ryegrass, Italian) was 70%. It also gave a pest or weed control at 31 g/ha ([4]; 31 g ai/ha) of 25%, a pest or weed control at 62 g/ha ([4]; 62 g ai/ha) of 55% and a pest or weed control at 125 g/ha ([4]; 125 g ai/ha) of 70%. For the same molecule, the pest or weed control at 250 g/ha ([4]; 250 g ai/ha) was 85%, the pest or weed control at 31 g/ha ([5]; 31 g ai/ha) was 100% and the pest or weed control at 62 g/ha ([5]; 62 g ai/ha) was 100%. The pest or weed control at 125 g/ha ([5]; 125 g ai/ha) was 100%, the pest or weed control at 250 g/ha ([5]; 250 g ai/ha) was 95% and the pest or weed control at 31 g/ha ([6]; 31 g ai/ha) was 15%. For the same molecule, the pest or weed control at 62 g/ha ([6]; 62 g ai/ha) was 25%, the pest or weed control at 125 g/ha ([6]; 125 g ai/ha) was 35% and the pest or weed control at 250 g/ha ([6]; 250 g ai/ha) was 45%. It also gave a pest or weed control at 31 g/ha ([7]; 31 g ai/ha) of 70%, a pest or weed control at 62 g/ha ([7]; 62 g ai/ha) of 65% and a pest or weed control at 125 g/ha ([7]; 125 g ai/ha) of 100%. It also gave a pest or weed control at 250 g/ha ([7]; 250 g ai/ha) of 100%, a pest or weed control at 31 g/ha ([8]; 31 g ai/ha) of 0% and a pest or weed control at 62 g/ha ([8]; 62 g ai/ha) of 0%. It also gave a pest or weed control at 125 g/ha ([8]; 125 g ai/ha) of 20%, a pest or weed control at 250 g/ha ([8]; 250 g ai/ha) of 55% and a pest or weed control at 31 g/ha [9, 15] of 60%. For the same molecule, the pest or weed control at 62 g/ha [9, 16] was 60%, the pest or weed control at 125 g/ha [9, 17] was 70% and the pest or weed control at 250 g/ha [9, 18] was 95%. It also gave a pest or weed control at 16 g/ha [9, 19] of 50%, a pest or weed control at 31 g/ha [10, 15] of 50% and a pest or weed control at 62 g/ha [10, 16] of 60%. For the same molecule, the pest or weed control at 125 g/ha [10, 17] was 65%, the pest or weed control at 250 g/ha [10, 18] was 80% and the pest or weed control at 16 g/ha [10, 19] was 50%. It also gave a pest or weed control at 31 g/ha ([11]; 31 g ai/ha, scale 0 (no effect) to 100 (complete control), read-out: Plant response rating, Radish, Wild) of 95%, a pest or weed control at 62 g/ha ([11]; 62 g ai/ha, scale 0-100, read-out: Plant response rating, Radish, Wild) of 100% and a pest or weed control at 125 g/ha ([11]; 125 g ai/ha, scale 0-100, read-out: Plant response rating, Radish, Wild) of 95%. The pest or weed control at 250 g/ha ([11]; 250 g ai/ha, scale 0-100, read-out: Plant response rating, Radish, Wild) was 100%, the pest or weed control at 31 g/ha ([12]; 31 g ai/ha) was 35% and the pest or weed control at 62 g/ha ([12]; 62 g ai/ha) was 70%. For the same molecule, the pest or weed control at 125 g/ha ([12]; 125 g ai/ha) was 80%, the pest or weed control at 250 g/ha ([12]; 250 g ai/ha) was 85% and the pest or weed control at 31 g/ha ([13]; 31 g ai/ha) was 0%. It also gave a pest or weed control at 62 g/ha ([13]; 62 g ai/ha) of 0%, a pest or weed control at 125 g/ha ([13]; 125 g ai/ha) of 10% and a pest or weed control at 250 g/ha ([13]; 250 g ai/ha) of 40%. The pest or weed control at 31 g/ha [14, 15] was 20%, the pest or weed control at 62 g/ha [14, 16] was 20% and the pest or weed control at 125 g/ha [14, 17] was 30%. For the same molecule, the pest or weed control at 250 g/ha [14, 18] was 45% and the pest or weed control at 16 g/ha [14, 19] was 10%.
